Patent US10973831B2, “Fluoropiperidine compounds as pure 5-HT 6 receptor antagonists” (SUVEN LIFE SCIENCES LIMITED, priority 2017, dated 2021)
Structures can show the parent of a compound that is named as a salt. Values belong to the compound of their own block, whether it stands above or below them.

How the values were obtained:
[1] = target: T1, recombinant human 5-HT6 receptor (Homo sapiens, UniProt P50406); assay: Determination of Kb for 5-HT6 receptor (CHO cells, pCRE-Luc reporter, cAMP); format: cell-based; settings: 10 μM serotonin, luciferase reporter
T1 construct: expressed in transfected cells
T1 sequence (P50406 whole entry): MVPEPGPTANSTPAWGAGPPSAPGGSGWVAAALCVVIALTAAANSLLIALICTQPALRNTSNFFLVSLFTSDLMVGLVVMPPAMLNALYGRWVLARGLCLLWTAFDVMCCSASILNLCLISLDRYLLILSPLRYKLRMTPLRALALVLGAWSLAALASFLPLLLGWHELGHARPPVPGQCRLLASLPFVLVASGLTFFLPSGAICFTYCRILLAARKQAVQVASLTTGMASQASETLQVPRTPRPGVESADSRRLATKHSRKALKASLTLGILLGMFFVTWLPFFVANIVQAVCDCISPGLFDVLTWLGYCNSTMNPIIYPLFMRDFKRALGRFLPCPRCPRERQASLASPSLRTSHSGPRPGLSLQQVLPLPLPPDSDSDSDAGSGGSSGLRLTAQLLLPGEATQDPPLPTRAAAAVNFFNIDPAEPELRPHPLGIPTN
Description: Determination of Kb for 5-HT6 Receptor: A stable CHO cell line expressing recombinant human 5-HT6 receptor and pCRE-Luc reporter system was used for cell based assay. The assay offers a non-radioactive based approach to determine binding of a compound to GPCRs. In this specific assay, the level of intracellular cyclic AMP which is modulated by activation or inhibition of the receptor is measured. The recombinant cells harbor luciferase reporter gene under the control of cAMP response element. The above cells were plated in 96 well clear bottom white plates at a density of 5×10^4 cells/well using Hams F12 medium containing 10% fetal bovine serum (FBS) and incubated overnight at 37° C. and 5% CO2 followed by serum starvation for 18-20 hrs. Increasing concentrations of test compounds were added along with 10 μM serotonin in Opti-MEM to the cells. The incubation was continued at 37° C. in CO2 incubator for 4 hours. After 4 hours cells were lysed using lysis buffer and luciferase assay buffer was added to each well and counts per second were recorded using luminescence counter. From counts per second (CPS) obtained, percent binding was calculated for each well by taking 10 μM 5-HT as 100% bound and vehicle as 0% bound. The percent bound values were plotted against compound concentrations and data were analyzed using a nonlinear, iterative curve-fitting computer program of Graph pad Prism 4 software. The Kb values were calculated using concentration of the agonist used in the assay.

recombinant human 5-HT2A = target: T2, recombinant human 5-HT2A (Homo sapiens, UniProt P28223); assay: Determination of 5-HT2A binding ([3H]-Ketanserin radioligand, membranes); settings: human 5-HT2A membranes, [3H]-Ketanserin 1.75 nM
T2 construct: purchased Perkin Elmer ES-313-M400UA
T2 sequence (P28223 whole entry): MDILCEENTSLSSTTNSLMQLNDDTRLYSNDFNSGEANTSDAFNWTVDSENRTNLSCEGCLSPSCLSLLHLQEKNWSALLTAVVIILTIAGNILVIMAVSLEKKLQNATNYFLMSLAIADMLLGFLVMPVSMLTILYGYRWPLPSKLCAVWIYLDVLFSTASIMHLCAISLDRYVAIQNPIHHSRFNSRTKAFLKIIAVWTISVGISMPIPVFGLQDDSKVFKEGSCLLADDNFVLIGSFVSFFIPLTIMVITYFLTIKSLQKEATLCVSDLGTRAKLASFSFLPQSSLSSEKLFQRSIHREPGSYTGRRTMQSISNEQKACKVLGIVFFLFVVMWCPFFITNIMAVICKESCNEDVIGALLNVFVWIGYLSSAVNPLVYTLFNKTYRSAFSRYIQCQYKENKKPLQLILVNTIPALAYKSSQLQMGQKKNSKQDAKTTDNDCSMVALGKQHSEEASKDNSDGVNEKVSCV
Description: Membrane preparation from recombinant human 5-HT2A cell line (Cat no. ES-313-M400UA) and radio ligand Ketanserin Hydrochloride, [Ethylene-^3H]-(R-41468) (Cat no. NET791250UC) were purchased from Perkin Elmer. All other reagents used in buffer preparation were purchased from Sigma. The final ligand concentration was 1.75 nM; non-specific determinant was 1-NP [10 μM] and 5-HT2A membrane protein (5 μg/well). 1-NP was used as a positive control. Reactions were carried out in 67 mM Tris pH 7.6 containing 0.5 mM EDTA buffer for 60 minutes at 25° C. Reaction was stopped by rapid filtration followed by six washes of the binding mixture using 96 well harvest plate (Millipore Cat no. MSFBNXB50) pre coated with 0.33% polyethyleneimine. The plate was dried and the bound radioactivity collected on the filters was determined by scintillation counting using MicroBeta TriLux. Radio ligand binding in the presence of non-labeled compound was expressed as a percent of the total binding and plotted against the log concentration of the compound. Ki values were determined using a nonlinear, iterative curve-fitting computer program of Graph pad Prism 4 software.

[2] = Non-clinical toxicology, repeated dose toxicity study in rat; format: in vivo; settings: rat, female rats
Description: (§1) The safety of the example 1 of instant invention and comparator example of U.S. Pat. No. 7,378,415 were evaluated in repeated dose toxicity study in rat.
(§2) Female rats were used as experimental animals for evaluating the toxicity profile of example 1 of instant invention and the comparator example of U.S. Pat. No. 7,378,415.
(§3) During the study, female rats were dosed at incremental doses for minimum of 4 days. Toxicity assessment was done on the mortality, clinical observation, change in the body weight, feed consumption, clinical and anatomical pathology. Systemic exposures were also estimated for both of the compounds. All quantitative variables are compared with control group using one-way ANOVA followed by Dunnet's post-hoc test on GraphPad Prism Software version 4, 2003.

Female rats = assay: as above; format: in vivo; settings: repeated dose toxicity
Description: as §1, §2, §3

Compound: O=S(=O)(c1ccccc1)c1ccc2c(c1)OCCN2C1CCNCC1F (single isomer, unassigned; peak i) [Example 2, 7-Phenylsulfonyl-4-(3-fluoropiperidin-4-yl)-3,4-dihydro-2H-benzo[1,4]oxazine hydrochloride (Peak I)]
- Kb [1]: 0.4 nM
- Ki (recombinant human 5-HT2A): 262 nM

Compound: O=S(=O)(c1ccccc1)c1ccc2c(c1)OCCN2C1CCNCC1F (single isomer, unassigned; peak ii) [Example 3, 7-Phenylsulfonyl-4-(3-fluoropiperidin-4-yl)-3,4-dihydro-2H-benzo[1,4]oxazine hydrochloride (Peak II)]
- Kb [1]: 0.09 nM
- Ki (recombinant human 5-HT2A): 113 nM

Compound: O=S(=O)(c1ccccc1)c1ccc2c(c1)N(C1CCNCC1F)CCO2 (single isomer, unassigned; peak ii) [Example 15, 6-Phenylsulfonyl-4-(3-fluoropiperidin-4-yl)-3,4-dihydro-2H-benzo[1,41]oxazine (Peak II)]
- Kb [1]: 1.25 nM
- Ki (recombinant human 5-HT2A): 1660 nM

- Kb [1]: < 0.1 nM
- Ki (recombinant human 5-HT2A): 19.7 nM
Compound: O=S(=O)(c1cccc(F)c1)c1ccc2c(c1)OCCN2C1CCNCC1F (single isomer, unassigned; peak iii) [Example 7, 7-(3-Fluorophenylsulfonyl)-4-(3-fluoropiperidin-4-yl)-3,4-dihydro-2H-benzo[1,4]oxazine hydrochloride (Peak III)]

Compound: O=S(=O)(c1ccccc1)c1ccc2c(c1)OCCN2C1CCNCC1F (single isomer, unassigned; peak iv) [Example 4, 7-Phenylsulfonyl-4-(3-fluoropiperidin-4-yl)-3,4-dihydro-2H-benzo[1,4]oxazine hydrochloride (Peak IV)]
- Kb [1]: 0.4 nM
- Ki (recombinant human 5-HT2A): 3930 nM

- Kb [1]: 19 nM
- Ki (recombinant human 5-HT2A): 804 nM
Compound: O=S(=O)(c1cccc(F)c1)c1ccc2c(c1)OCCN2C1CCNCC1F (single isomer, unassigned; peak iv) [Example 8, 7-(3-Fluorophenylsulfonyl)-4-(3-fluoropiperidin-4-yl)-3,4-dihydro-2H-benzo[1,4]oxazine hydrochloride (Peak IV)]

Compound: O=S(=O)(c1ccccc1)c1ccc2c(c1)N(C1CCNCC1F)CCO2 (single isomer, unassigned; peak iv) [Example 17, 6-Phenylsulfonyl-4-(3-fluoropiperidin-4-yl)-3,4-dihydro-2H-benzo[1,41]oxazine (Peak IV)]
- Kb [1]: 1.79 nM
- Ki (recombinant human 5-HT2A): 907 nM

Compound: O=S(=O)(c1ccccc1)c1ccc2c(c1)OCCN2C1CCNCC1 [Comparator Example, 7-Phenylsulfonyl-4-(piperidin-4-yl)-3,4-dihydro-2H-benzo[1,4]oxazine, reference compound]
- Kb [1]: 0.1 nM
- NOAEL at 7 days ([2]; in vivo, 7-Day repeat tox): 30 mg/kg
- MTD ([2]; in vivo, repeated incremental doses, read-out: Maximum Tolerated Dose): 30 mg/kg
- AUC ([2]; plasma, repeated dose toxicity study, read-out: AUC (systemic exposure in toxicity study)): 4050 ng·h/mL
- Cmax ([2]; plasma, repeated dose toxicity study, read-out: Cmax (systemic exposure in toxicity study)): 280 ng/mL
- Findings (mortality) (Female rats; listed as Comparator example of U.S. Pat. No. 7,378,415): Mortality at ≥
- Findings (mortality) (Female rats; listed as comparator example of U.S. Pat. No. 7,378,415): deaths were observed at doses >100 mg/kg on second day of dosing
- Ki (recombinant human 5-HT2A): 9.02 nM
